1 compound from patent US6977082B2, “High efficacy antibacterial compositions having enhanced esthetic and skin care properties” (The Dial Corporation, priority 2001, dated 2005) can be followed below.

The data set in a line: Repeat Application Soap Chamber (irritation) Test. To be noted: occlusive patches on volar forearm, six days, dilute solutions.

Description: Twelve male and female subjects between the ages of 18 and 65, who were in good health, were enrolled in the test. Dilute solutions of all test compositions were made each day of patching. Patches were totally occlusive chambers, 12 mm in diameter, applied to the volar forearm for a total of six days. Expert visual gradings, using a four-point scale for erythema, scaling, and fissuring were used as the objective measure of observation for this study. Grading was performed at baseline (i.e., when panelists were enrolled), 30 minutes after patch removal on days one to six, and at 24 hours on days one to six. A maximum for each tested characteristic was established as a “3” score.

On to `CCCCCCCCCCCCOS(=O)(=O)[O-].[Na+]` [SLS, sodium lauryl sulfate], for which the “irritation potential, ranking from highest to lowest” value is listed as “SLS>HCPHW-E>HCPHW-H>HCPHW-G>HCPHW-F>Composition A>Negative Control”.
